In general, IC50 refers to the concentration that inhibits the measured activity by half.

The structures appear in SMILES notation. The source made the active and inactive calls. No cut-off for these calls is given here.

Two molecules from ChEMBL document CHEMBL5329214, “4-Arylidene curcumin derivatives in vitro inhibit α-Synuclein aggregation and disaggregate the preformed fibril” (Bioorg Med Chem, 2023) can be followed below.

Assay [1] addresses T1, Alpha-synuclein (Homo sapiens, UniProt P37840). The assay can be described thus: Inhibition of alpha-Synuclein (unknown origin) aggregation assessed as alteration in typical alpha-Syn "S" shaped aggregation kinetics by measuring reduction in oligomeric nuclei in lag phase at 30 uM measured for 86 hrs by ThT-based fluorescence analysis.
For assay [2], the target named is T1, Alpha-synuclein. The assay can be described thus: Inhibition of alpha-Synuclein (unknown origin) aggregation incubated for 72 hrs by ThT-based fluorescence analysis.
Assay [3] addresses T1, Alpha-synuclein. Briefly: Inhibition of alpha-Synuclein (unknown origin) aggregation assessed as alteration in typical alpha-Syn "S" shaped aggregation kinetics by measuring weakening of primary nucleation in lag phase at 30 uM measured for 86 hrs by ThT-based fluorescence analysis.
The target of assay [4] is T1, Alpha-synuclein. Briefly: Inhibition of alpha-Synuclein (unknown origin) aggregation assessed as alteration in typical alpha-Syn "S" shaped aggregation kinetics by measuring reduction in aggregation rate in elongation phase at 30 uM measured for 86 hrs by ThT-based fluorescence analysis.

Turning to `COc1cc(/C=C/C(=O)C(=Cc2ccc(O)cc2)C(=O)/C=C/c2ccc(O)c(OC)c2)ccc1O`, the inhibition result on Alpha-synuclein [1], on Alpha-synuclein [3] and on Alpha-synuclein [4] was “Active” each time. The molecule also displayed an IC50 at Alpha-synuclein [2] of 4.39 µM.

Turning to `COc1cc(/C=C/C(=O)CC(=O)/C=C/c2ccc(O)c(OC)c2)ccc1O` [CURCUMIN], the IC50 on Alpha-synuclein [2] amounted to 3.3 µM.
